# Laboratory results: ChEMBL document CHEMBL1201862, “PubChem BioAssay data set” (2004)
#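 Exposure lasted 48 hours, with cells grown in 96-well plates and compounds tested at five concentrations. The concentration for 50% growth inhibition is given as GI50.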 Active and inactive are the calls of the source. Cut-off read from the data, not from the text of the source: active = GI50 up to about 1.1 µM and inactive = higher.
# Experiments:
# Assay in all cases: DTP human tumour cell line panel, 48 h
# [1] = test system: 786-0
# [2] = test system: A498
# [3] = test system: A549
# [4] = test system: ACHN
# [5] = test system: BT-549
# [6] = test system: CAKI-1
# [7] = test system: CCRF-CEM
# [8] = test system: COLO 205
# [9] = test system: DU-145
# [10] = test system: EKVX
# [11] = test system: HCC 2998
# [12] = test system: HCT-116
# [13] = test system: HCT-15
# [14] = test system: HL-60
# [15] = test system: HOP-62
# [16] = test system: HOP-92
# [17] = test system: HT-29
# [18] = test system: Hs-578T
# [19] = test system: IGROV-1
# [20] = test system: K562
# [21] = test system: KM12
# [22] = test system: LOX IMVI
# [23] = test system: M14
# [24] = test system: MCF7
# [25] = test system: MDA-MB-231
# [26] = test system: MDA-MB-435
# [27] = test system: MDA-N
# [28] = test system: MOLT-4
# [29] = test system: Malme-3M
# [30] = test system: NCI-H226
# [31] = test system: NCI-H23
# [32] = test system: NCI-H460
# [33] = test system: NCI-H522
# [34] = test system: NCI/ADR-RES
# [35] = test system: OVCAR-3
# [36] = test system: OVCAR-4
# [37] = test system: OVCAR-5
# [38] = test system: OVCAR-8
# [39] = test system: PC-3
# [40] = test system: RXF 393
# [41] = test system: SF-268
# [42] = test system: SF-295
# [43] = test system: SF-539
# [44] = test system: SK-MEL-28
# [45] = test system: SK-MEL-5
# [46] = test system: SK-OV-3
# [47] = test system: SN12C
# [48] = test system: SNB-75
# [49] = test system: SW-620
# [50] = test system: T47D
# [51] = test system: TK-10
# [52] = test system: U-251
# [53] = test system: UACC-257
# [54] = test system: UACC-62
# [55] = test system: UO-31
# [56] = test system: RPMI-8226
# [57] = test system: SK-MEL-2
# [58] = test system: SNB-19
# [59] = test system: SR
structure (smiles),measurement,setting,value
CCCCc1nc(C)oc1C(C)C,GI50,[1],> 100 µM (inactive)
same,GI50,[2],> 100 µM (inactive)
same,GI50,[3],> 100 µM (inactive)
same,GI50,[4],> 100 µM (inactive)
same,GI50,[5],> 100 µM (inactive)
same,GI50,[6],> 100 µM (inactive)
same,GI50,[7],> 100 µM (inactive)
same,GI50,[8],> 100 µM (inactive)
same,GI50,[9],> 100 µM (inactive)
same,GI50,[10],> 100 µM (inactive)
same,GI50,[11],> 100 µM (inactive)
same,GI50,[12],> 100 µM (inactive)
same,GI50,[13],> 100 µM
same,GI50,[14],> 100 µM (inactive)
same,GI50,[15],> 100 µM (inactive)
same,GI50,[16],> 100 µM (inactive)
same,GI50,[17],> 100 µM (inactive)
same,GI50,[18],> 100 µM (inactive)
same,GI50,[19],> 100 µM (inactive)
same,GI50,[20],> 100 µM (inactive)
same,GI50,[21],> 100 µM (inactive)
same,GI50,[22],> 100 µM (inactive)
same,GI50,[23],> 100 µM (inactive)
same,GI50,[24],> 100 µM (inactive)
same,GI50,[25],> 100 µM (inactive)
same,GI50,[26],> 100 µM (inactive)
same,GI50,[27],> 100 µM (inactive)
same,GI50,[28],> 100 µM (inactive)
same,GI50,[29],> 100 µM (inactive)
same,GI50,[30],40.7 µM (inactive)
same,GI50,[31],> 100 µM (inactive)
same,GI50,[32],> 100 µM (inactive)
same,GI50,[33],> 100 µM (inactive)
same,GI50,[34],> 100 µM (inactive)
same,GI50,[35],> 100 µM (inactive)
same,GI50,[36],> 100 µM (inactive)
same,GI50,[37],> 100 µM (inactive)
same,GI50,[38],> 100 µM (inactive)
same,GI50,[39],> 100 µM (inactive)
same,GI50,[40],> 100 µM (inactive)
same,GI50,[41],> 100 µM (inactive)
same,GI50,[42],> 100 µM (inactive)
same,GI50,[43],> 100 µM (inactive)
same,GI50,[44],> 100 µM (inactive)
same,GI50,[45],> 100 µM (inactive)
same,GI50,[46],> 100 µM (inactive)
same,GI50,[47],> 100 µM (inactive)
same,GI50,[48],> 100 µM (inactive)
same,GI50,[49],> 100 µM (inactive)
same,GI50,[50],> 100 µM (inactive)
same,GI50,[51],> 100 µM (inactive)
same,GI50,[52],> 100 µM (inactive)
same,GI50,[53],> 100 µM (inactive)
same,GI50,[54],> 100 µM (inactive)
same,GI50,[55],> 100 µM (inactive)
CC(CO)[C@H]1OC(=O)C=C2[C@@]13O[C@@H]3[C@H]1OC(=O)[C@@]3(C)[C@H]4O[C@H]4C[C@@]2(C)[C@@H]13 (stereo partly drawn),GI50,[1],1.57 µM (inactive)
same,GI50,[2],4.1 µM (inactive)
same,GI50,[3],1.87 µM (inactive)
same,GI50,[4],0.843 µM (active)
same,GI50,[5],2.11 µM (inactive)
same,GI50,[6],1.84 µM (inactive)
same,GI50,[7],0.5 µM (active)
same,GI50,[8],1.58 µM (inactive)
same,GI50,[9],1.39 µM (inactive)
same,GI50,[10],2.64 µM (inactive)
same,GI50,[11],1.65 µM (inactive)
same,GI50,[12],1.07 µM (active)
same,GI50,[13],0.914 µM
same,GI50,[14],0.343 µM (active)
same,GI50,[15],2.94 µM (inactive)
same,GI50,[16],2.71 µM (inactive)
same,GI50,[17],1.19 µM (inactive)
same,GI50,[18],2.52 µM (inactive)
same,GI50,[19],1.5 µM (inactive)
same,GI50,[20],1.17 µM (inactive)
same,GI50,[21],1.19 µM (inactive)
same,GI50,[22],0.249 µM (active)
same,GI50,[23],1.19 µM (inactive)
same,GI50,[24],1.07 µM (active)
same,GI50,[25],2.51 µM (inactive)
same,GI50,[26],1.55 µM (inactive)
same,GI50,[27],1.32 µM (inactive)
same,GI50,[28],0.488 µM (active)
same,GI50,[29],2.13 µM (inactive)
same,GI50,[30],1.27 µM (inactive)
same,GI50,[31],2.43 µM (inactive)
same,GI50,[32],0.583 µM (active)
same,GI50,[33],1.46 µM (inactive)
same,GI50,[35],2.17 µM (inactive)
same,GI50,[36],1.15 µM (inactive)
same,GI50,[37],3.78 µM (inactive)
same,GI50,[38],2.25 µM (inactive)
same,GI50,[39],2.96 µM (inactive)
same,GI50,[56],2.22 µM (inactive)
same,GI50,[40],1.62 µM (inactive)
same,GI50,[41],0.973 µM (active)
same,GI50,[42],1.36 µM (inactive)
same,GI50,[43],1.83 µM (inactive)
same,GI50,[44],1.83 µM (inactive)
same,GI50,[57],2.07 µM (inactive)
same,GI50,[45],0.8 µM (active)
same,GI50,[46],3.02 µM (inactive)
same,GI50,[47],1.92 µM (inactive)
same,GI50,[58],1.47 µM (inactive)
same,GI50,[48],0.738 µM (active)
same,GI50,[59],0.288 µM (active)
same,GI50,[49],1.65 µM (inactive)
same,GI50,[50],2.92 µM (inactive)
same,GI50,[51],2.07 µM (inactive)
same,GI50,[52],2.15 µM (inactive)
same,GI50,[53],1.44 µM (inactive)
same,GI50,[54],1.16 µM (inactive)
same,GI50,[55],1.73 µM (inactive)
